Read-outs that look alike come from different tables or passages of the source.
Experiments:
[1] = test system: Puccinia triticina; test: Wheat Brown Rust fungicidal activity (PUCCRT); assay type: in vivo; conditions: for pest or weed control at 121.5 g/ha: Low Volume Cereal Activity at 121.5 g/Ha; for pest or weed control at 100 ppm: wheat, high volume
Method: All fungicides were evaluated using the aforementioned method for their activity vs. all target diseases, unless stated otherwise. Wheat leaf blotch and brown rust activity were also evaluated using track spray applications, in which case the fungicides were formulated as EC formulations, containing 0.1% Trycol 5941 in the spray solutions. Wheat plants (variety Yuma) were grown from seed in a greenhouse in 50% mineral soil/50% soil-less Metro mix until the first leaf was fully emerged, with 7-10 seedlings per pot. These plants were inoculated with an aqueous spore suspension of Zymoseptoria tritici either prior to or after fungicide treatments. After inoculation the plants were kept in 100% relative humidity (one day in a dark dew chamber followed by two to three days in a lighted dew chamber at 20° C.) to permit spores to germinate and infect the leaf. The plants were then transferred to a greenhouse set at 20° C. for disease to develop. When disease symptoms were fully expressed on the 1st leaves of untreated plants, infection levels were assessed on a scale of 0 to 100 percent disease severity. Percent disease control was calculated using the ratio of disease severity on treated plants relative to untreated plants. Wheat plants (variety Yuma) were grown from seed in a greenhouse in 50% mineral soil/50% soil-less Metro mix until the first leaf was fully emerged, with 7-10 seedlings per pot. These plants were inoculated with an aqueous spore suspension of Puccinia triticina either prior to or after fungicide treatments. […] The plants were then transferred to a greenhouse set at 24° C. for disease to develop. Fungicide formulation, application and disease assessment followed the procedures as described in the Example A.

[2] = test system: Zymoseptoria tritici; test: Leaf Blotch of Wheat fungicidal activity (SEPTTR); assay type: in vivo; conditions: for pest or weed control at 121.5 g/ha: Low Volume Cereal Activity at 121.5 g/Ha; for pest or weed control at 100 ppm: wheat, high volume
Method: All fungicides were evaluated using the aforementioned method for their activity vs. all target diseases, unless stated otherwise. Wheat leaf blotch and brown rust activity were also evaluated using track spray applications, in which case the fungicides were formulated as EC formulations, containing 0.1% Trycol 5941 in the spray solutions. Wheat plants (variety Yuma) were grown from seed in a greenhouse in 50% mineral soil/50% soil-less Metro mix until the first leaf was fully emerged, with 7-10 seedlings per pot. These plants were inoculated with an aqueous spore suspension of Zymoseptoria tritici either prior to or after fungicide treatments. After inoculation the plants were kept in 100% relative humidity (one day in a dark dew chamber followed by two to three days in a lighted dew chamber at 20° C.) to permit spores to germinate and infect the leaf. The plants were then transferred to a greenhouse set at 20° C. for disease to develop. When disease symptoms were fully expressed on the 1st leaves of untreated plants, infection levels were assessed on a scale of 0 to 100 percent disease severity. Percent disease control was calculated using the ratio of disease severity on treated plants relative to untreated plants.

[3] = 24 h, 1 Day Protectant, read-out: PUCCRT 1DP (Wheat Brown Rust, 1 Day Protectant)
[4] = 72 h, 3 Day Curative, read-out: PUCCRT 3DC (Wheat Brown Rust, 3 Day Curative)
[5] = 24 h, 1 Day Protectant, read-out: SEPTTR 1DP (Wheat Leaf Blotch, 1 Day Protectant)
[6] = 72 h, 3 Day Curative, read-out: SEPTTR 3DC (Wheat Leaf Blotch, 3 Day Curative)
[7] = 24 h, 1 Day Protectant, read-out: PUCCRT 1DP % Control rating
[8] = 72 h, 3 Day Curative, read-out: PUCCRT 3DC % Control rating
[9] = 24 h, 1 Day Protectant, read-out: SEPTTR 1DP % Control rating
[10] = 72 h, 3 Day Curative, read-out: SEPTTR 3DC % Control rating

Row | Compound | pest or weed control at 121.5 g/ha [1, 3] | pest or weed control at 121.5 g/ha [1, 4] | pest or weed control at 121.5 g/ha [2, 5] | pest or weed control at 121.5 g/ha [2, 6] | pest or weed control at 100 ppm [1, 7] | pest or weed control at 100 ppm [1, 8] | pest or weed control at 100 ppm [2, 9] | pest or weed control at 100 ppm [2, 10]
1 | COc1ccnc(C(=O)N[C@@H](C)C(=O)O[C@@H](C)[C@H](Oc2cc(F)ccc2F)c2ccccc2)c1OCOC(C)=O [Example 191] | > 80% | > 80% | < 0% | < 80% |  |  |  | 
2 | COc1ccnc(C(=O)N[C@@H](C)C(=O)O[C@@H](C)[C@@H](OCC2CC2)c2ccccc2)c1OC(C)=O [Example 232] | > 80% | > 80% | < 0% | > 80% |  |  |  | 
3 | COc1ccnc(C(=O)N[C@@H](C)C(=O)O[C@@H](C)[C@H](Oc2ccccc2)c2nccs2)c1O [Example 132] |  |  |  |  | > 80% | < 80% | < 80% | < 0%
4 | COc1cc(C)ccc1[C@@H](Oc1ccc(C)cc1)[C@H](C)OC(=O)[C@H](C)NC(=O)c1nccc(OC)c1O [Example 177] |  |  |  |  | < 80% | < 0% | > 80% | > 80%
5 | COc1ccnc(C(=O)N[C@@H](C)C(=O)O[C@@H](C)[C@H](Oc2ccc(C)cc2Cl)c2ccc(F)cc2)c1OCOC(C)=O [Example 245] | > 80% | < 80% | > 80% | > 80% |  |  |  | 
6 | COc1ccnc(C(=O)N[C@@H](C)C(=O)O[C@@H](C)[C@H](Oc2ccccc2)c2ccc(-c3ccccc3)cc2)c1OCOC(C)=O [Example 239] | > 80% | < 80% | > 80% | > 80% |  |  |  | 
7 | CCCO[C@H](c1ccccc1)[C@H](C)OC(=O)[C@H](C)NC(=O)c1nccc(OC)c1O [Example 137] |  |  |  |  | > 80% | > 80% | > 80% | > 80%
8 | COc1ccnc(C(=O)N[C@@H](Cc2ccccc2)C(=O)O[C@@H](C)[C@H](Oc2cccc(F)c2)c2ccccc2)c1OC(C)=O [Example 190] | > 80% | < 80% | < 80% | < 0% |  |  |  | 
9 | COc1ccnc(C(=O)N[C@@H](C)C(=O)O[C@@H](C)[C@H](Oc2ccccc2)c2ccc(F)cc2C)c1O [Example 162] |  |  |  |  | > 80% | > 80% | > 80% | > 80%
10 | COc1ccnc(C(=O)N[C@@H](C)C(=O)O[C@@H](C)[C@H](Oc2ccc(C)cc2Cl)c2ccccc2)c1OC(C)=O [Example 243] | > 80% | < 80% | > 80% | > 80% |  |  |  | 
11 | COc1cc(F)ccc1[C@@H](Oc1ccc(C)cc1Cl)[C@H](C)OC(=O)[C@H](C)NC(=O)c1nccc(OC)c1O [Example 169] |  |  |  |  | > 80% | < 80% | > 80% | > 80%
12 | COc1ccnc(C(=O)N[C@@H](C)C(=O)O[C@@H](C)[C@H](Oc2ccc(Cl)cc2)c2ccccc2)c1OCOC(C)=O [Example 201] | > 80% | > 80% | > 80% | > 80% |  |  |  | 
13 | COc1ccnc(C(=O)N[C@@H](C)C(=O)O[C@@H](C)[C@H](OCC2CC2)c2cccc(-c3ccccc3)c2)c1O [Example 131] |  |  |  |  | < 80% | < 80% | < 0% | < 80%
14 | CCCO[C@@H](c1ccccc1)[C@H](C)OC(=O)[C@H](C)NC(=O)c1nccc(OC)c1O [Example 138] |  |  |  |  | > 80% | > 80% | < 80% | < 80%
15 | COc1ccnc(C(=O)N[C@@H](C)C(=O)O[C@@H](C)[C@H](Oc2ccc(C)cc2)c2ccccc2)c1OC(C)=O [Example 246] | > 80% | > 80% | > 80% | > 80% |  |  |  | 
16 | COc1ccnc(C(=O)N[C@@H](C)C(=O)O[C@@H](C)[C@@H](Oc2ccc(Cl)cc2Cl)c2ccccc2)c1OC(=O)C(C)C [Example 215] | < 80% | < 80% | < 80% | < 80% |  |  |  | 
17 | COc1ccnc(C(=O)N[C@@H](C)C(=O)O[C@@H](C)[C@H](Oc2ccc(C)cc2Cl)c2ccccc2)c1OCOC(C)=O [Example 244] | > 80% | < 80% | > 80% | > 80% |  |  |  | 
18 | COc1ccnc(C(=O)N[C@@H](C)C(=O)O[C@@H](C)[C@H](Oc2ccccc2)c2cccc(-c3ccccc3)c2)c1O [Example 145] |  |  |  |  | > 80% | < 80% | > 80% | > 80%
19 | COc1ccnc(C(=O)N[C@@H](Cc2ccccc2)C(=O)O[C@@H](C)[C@H](Oc2cccc(F)c2)c2ccccc2)c1O [Example 128] |  |  |  |  | > 80% | < 80% | < 0% | < 80%
20 | COc1ccnc(C(=O)N[C@@H](C)C(=O)O[C@@H](C)[C@@H](Oc2ccccc2)c2cccnc2)c1OC(C)=O [Example 211] | < 0% | < 80% | < 0% | < 80% |  |  |  | 
21 | COc1ccnc(C(=O)N[C@@H](C)C(=O)O[C@@H](C)[C@H](Oc2ccc(C(F)(F)F)cc2)c2ccccc2)c1OC(C)=O [Example 196] | > 80% | < 80% | > 80% | > 80% |  |  |  | 
22 | COc1ccnc(C(=O)N[C@@H](C)C(=O)O[C@@H](C)[C@H](Oc2cccc(F)c2)c2cccc(-c3ccccc3)c2)c1OCOC(C)=O [Example 221] | > 80% | < 80% | > 80% | < 80% |  |  |  | 
23 | COc1cc(F)ccc1[C@@H](OCC1CC1)[C@H](C)OC(=O)[C@H](C)NC(=O)c1nccc(OC)c1O [Example 289] |  |  |  |  | > 80% | > 80% | > 80% | > 80%
24 | CC[C@H](NC(=O)c1nccc(OC)c1OCOC(C)=O)C(=O)O[C@@H](C)[C@H](Oc1cc(F)ccc1F)c1ccccc1 [Example 193] | > 80% | > 80% | < 80% | < 0% |  |  |  | 
25 | COc1ccnc(C(=O)N[C@@H](C)C(=O)O[C@@H](C)[C@H](Oc2cccc(F)c2)c2cccc(-c3ccccc3)c2)c1OC(C)=O [Example 223] | > 80% | < 80% | > 80% | > 80% |  |  |  | 
26 | COc1ccnc(C(=O)N[C@@H](C)C(=O)O[C@@H](C)[C@@H](Oc2ccc(Cl)cc2Cl)c2ccccc2)c1OC(C)=O [Example 214] | > 80% | < 80% | > 80% | > 80% |  |  |  | 
27 | COc1ccnc(C(=O)N[C@@H](C)C(=O)O[C@@H](C)[C@H](Oc2cc(F)cc(Cl)c2)c2ccccc2)c1OCOC(C)=O [Example 206] | > 80% | < 80% | > 80% | > 80% |  |  |  | 

— patent US20180002288A1, “USE OF PICOLINAMIDES AS FUNGICIDES” (DOW AGROSCIENCES LLC, priority 2014, published 2018)
